Measured values reported in patent publication US20140296143A1, “Angiotensin-(1-7) As A Chemoprevention Agent” (Wake Forest Innovations, priority 2008, published 2014).

Assays:
SK-LU-1 cells = assay: Gene array hybridization (Human Cancer 1.2 Atlas cDNA Expression Array) in SK-LU-1 cells; type: cell-based; settings: SK-LU-1, 1% serum, 100 nM
Procedure: Cells were incubated for 2 or 8 h, and total RNA was isolated using the Atlas Pure Total RNA Labeling System (Clontech Laboratories, Inc). The RNA concentration was quantified by UV spectroscopy and any degradation was assessed by ethidium bromide staining intensity of 28S and 18S ribosomal RNA following agarose gel electrophoresis. RNA isolated from seven different cell passages was pooled prior to gene array analysis to account for individual variability in gene regulation. Radiolabeled cDNA, prepared from the pooled RNAs using the Atlas system, was incubated with DNase to degrade any residual DNA and then hybridized to the Human Cancer 1.2 Atlas cDNA Expression Array (Clonetech Laboratories, Inc). This gene array set contains 1,176 characterized human cDNAs on positively-charged nylon membranes.

[1] = adjuvant therapy for cytopenia during chemotherapy; Rodgers et al., 2005; cited from earlier work
[2] = test system: ZR-75-1 breast cancer cell line tumors; assay: ZR-75-1 breast cancer xenograft in athymic mice, intravenous infusion; type: in vivo, mouse; settings: 24 μg/kg/hr infusion, 28 days; saline tumors doubled
Procedure: (§1) Male or female athymic mice (15-20 g, 2-4 weeks of age, Charles River Laboratory, Wilmington, Mass.) were housed in cages with HEPA-filtered air (12-hour light/dark cycle) and ad libitum access to food and autoclaved water. All procedures complied with the policies of the Wake Forest University Animal Care and Use Committee. Mice were inoculated subcutaneously in the lower left flank with approximately 1.9×10^6 A549 lung cancer cells or ZR-75-1 breast cancer cells suspended in 200 μL of cold Matrigel (BD Biosciences, Bedford, Mass.). […] The mice were anesthetized by inhalation with 1.5% isoflurane. […] The minipumps also contained heparin (25 U/mL) to maintain patency of the catheter. On day 28 of the infusion, the animals were anesthetized with halothane and sacrificed by decapitation. Alternatively, the mice received daily subcutaneous injections of Ang-(1-7) in saline or saline alone.
Tumor volumes were measured by caliper two times per week and calculated using the formula for a semiellipsoid. After 40 days, the mice had tumors approximately 175 mm^3 in size and were randomized for treatment.

[3] = test system: A549 human lung cancer cells; assay: Hoechst 33342 staining for morphological features of apoptosis; type: cell-based; settings: 100 nM, 4 h
Excerpt: In one experiment, A549 human lung cancer cells were stained with Hoechst 33342 to visualize the morphological changes associated with apoptosis.

[4] = test system: A549 human lung tumor xenografts; assay: A549 human lung tumor xenograft in athymic mice, subcutaneous injection; type: in vivo, mouse
Procedure: For reverse-transcriptase real-time PCR, RNA was isolated from cells or tissue, using the TRIzol reagent (GIBCO Invitrogen Corp., Carlsbad, Calif.), as directed by the manufacturer. The RNA concentration and integrity were assessed using an Agilent 2100 Bioanalyzer with an RNA 6000 nano LabChip (Agilent Technologies, Palo Alto, Calif.). Approximately 1 μg of total RNA was reverse transcribed using avian myeloblastosis virus reverse transcriptase (RT) in a 20 μL mixture containing deoxyribonucleotides, random hexamers and RNase inhibitor in RT buffer. Heating the RT reaction product at 95° C. terminated the reaction. For real-time polymerase chain reaction (PCR), 2 μL of the resultant cDNA was added to TaqMan Universal PCR Master Mix (Applied Biosystems, Foster City, Calif.) with a gene-specific primer/probe set (Applied Biosystems, Foster City, Calif.) and amplification was performed on an ABI 7000 Sequence Detection System. The mixtures were heated at 50° C. for 2 min, at 95° C. for 10 min followed by 40 cycles at 95° C. for 15 sec and 60° C. for 1 min. All reactions were performed in triplicate and 18S ribosomal RNA, amplified using the TaqMan Ribosomal RNA Control Kit (Applied Biosystems), served as an internal control. The results were quantified as Ct values, where Ct is defined as the threshold cycle of PCR at which amplified product is first detected, and expressed as the ratio of target/control (Relative Gene Expression).
as §1
The mice were injected daily, for 5 days, followed by a 2 day rest period, and the injections were continued for 7 cycles. Tumor size was measured every 3 days during the treatment period, using a caliper, and tumor volume was calculated using the formula for a semi-ellipsoid. The tumors continued to grow in the mice treated with saline (FIG. 33). […] It should be noted that a number of the saline control mice were sacrificed after 1 month due to excessive tumor size. Only a single control mouse remained in the study by the 40th day, while the Ang-(1-7)-treated mice thrived.

ERK1 = settings: SK-LU-1, 10 nM pretreatment; Gallagher et al., 2004; cited from earlier work
EA.hy.926 cells = assay: Tube formation of endothelial cells in Matrigel; type: cell-based, human; settings: over the range of 0.5 to 100 nM
Procedure: These cells are a transformed human endothelial cell line derived from umbilical vein endothelial cells. They retain their endothelial phenotype and were previously used to study angiogenesis.
After a 16 h incubation period to allow tube formation, cultures were photographed and branch points were counted, to quantify tube formation.

[5] = test system: lung tumors in Ki-ras^G12C mice; assay: Ki-ras^G12C bi-transgenic mouse model of lung tumorigenesis, DOX-induced; type: in vivo
Procedure: Tumors were fixed with 4% paraformaldehyde for 24 h and incubated in 70% ethanol for 48 h prior to embedding in paraffin. The embedded tumors were cut into five micron thick sections and stained with hematoxylin and eosin to determine morphology. Cell proliferation in the tumors was detected by immunostaining with an antibody to Ki67 (1:25; Abcam, Cambridge, Mass.) using the labeled streptavidin biotin method, as described previously (Floyd et al., Carcinogenesis, 2005, 26:2196-2206). Stained sections were visualized and photographed with a video image analysis system (Scion, Inc., Frederick, Md.) and public domain software (NIH Image v1.60). A computer-assisted counting technique with a grid filter to select cells was used to quantify the immunohistochemical staining of Ki67 (Stute et al., Fertil. Steril., 2004, 82:1160-1170). The positive cells were expressed as a percentage of the total cell number examined (100 cells sampled from each tissue site within each lung tumor section).
A novel model for the induction of lung tumors in mice, a bi-transgenic mouse that expresses the mutant human Ki-ras^G12C allele in a tet-inducible and lung-specific manner was generously supplied by Dr. Mark Miller of the Department of Cancer Biology, Wake Forest University School of Medicine, for use in these experiments.
For these experiments, sixteen (16) bi-transgenic mice were produced by crossing mono-transgenic Ki-ras^G12C mice with Clara cell secretory protein-reverse tet trans-activator (CCSP-rtTA) transgenic mice. The presence of both transgenes was verified by genotyping.

[6] = 1000 μg/kg/day, radioimmunoassay
[7] = subcutaneous 1000 μg/kg/day, versus saline

CC[C@H](C)[C@H](NC(=O)[C@H](Cc1ccc(O)cc1)NC(=O)[C@@H](NC(=O)[C@H](CCCNC(=N)N)NC(=O)[C@@H](N)CC(=O)O)C(C)C)C(=O)N[C@@H](Cc1c[nH]cn1)C(=O)N1CCC[C@H]1C(=O)O [Ang-(1-7), Asp-Arg-Val-Tyr-Ile-His-Pro]
expression of MEK5, ERK1, p21/K-ras 2B (SK-LU-1 cells): reduced | expression of p16^INK4a, menin, BAD, BAK, apoptotic protease activating factor 1 (SK-LU-1 cells): upregulated | adverse side effects in patients [1]: no adverse side effects | reduction in tumor volume compared to tumor size prior to treatment [2]: ~40% | morphological changes (Hoechst 33342) [3]: typical morphological changes associated with stimulation of apoptosis | prostacyclin synthase ([4]; 1000 μg/kg/day): not altered | PGE2 in tumors [4, 6]: reduced | PGI2 in tumors [4, 6]: increased | tumor growth ([4]; subcutaneous 1000 μg/kg/day, 5 days on/2 days rest, 7 cycles): significantly reduced | COX-2 in tumors [4, 7]: marked down-regulation | down-regulation in VEGF mRNA in tumor tissue [4, 7]: about 40% | reduction in prostaglandin E2 synthase (PGES) mRNA in tumors [4, 7]: greater than 50% | reduction of serum-stimulated phosphorylation of ERK1 (ERK1): 61% | inhibition of tube formation (EA.hy.926 cells): dose-dependent inhibition | Ki67 immunoreactivity in hyperplastic lesion ([5]; 24 μg/kg/h infusion, 84 days, saline: abundant, robust staining): little immunoreactivity | adverse reactions or gross pathological abnormalities ([5]; 24 μg/kg/h intravenous infusion, 84 days): No adverse reactions or gross pathological abnormalities | lung tumor multiplicity ([5]; 24 μg/kg/h intravenous infusion, 84 days, n=8, saline 12.75±1.04): 6.4±0.87 tumors/mice | CD34 positive cells in pulmonary lesions ([5]; Ang-(1-7) infusion, n=7, saline 63.5±6.1 (n=8), percentage of total cell number per FIG. 16 legend): 37.7±5.2 | proportion of COX-2 positive cells in hyperplasias and adenomas ([5]; Ang-(1-7) infusion, n=7, saline 68.8±10.2% (n=8)): 29.3±8.2% | reduction in the development of new tumors ([5]; Ki-ras/CCSP-rtTA bi-transgenic mice, FIG. 2): about 50% | reduction in the proportion of COX-2 positive cells ([5]; versus saline): ~50% | reduction in CD34 positive cells ([5]; versus saline-treated animals): ~40%
